Measured values taken from PMC4581724 (Analytical biochemistry, 2015).
Where two headings read alike, the source gives them in different places.

Experiments:
CrAS3MT [1] = biological target: T1, CrAS3MT (Chlamydomonas reinhardtii, UniProt K0BVM7); experiment: biochemical; assay type: biochemical
T1 sequence (K0BVM7 1-379): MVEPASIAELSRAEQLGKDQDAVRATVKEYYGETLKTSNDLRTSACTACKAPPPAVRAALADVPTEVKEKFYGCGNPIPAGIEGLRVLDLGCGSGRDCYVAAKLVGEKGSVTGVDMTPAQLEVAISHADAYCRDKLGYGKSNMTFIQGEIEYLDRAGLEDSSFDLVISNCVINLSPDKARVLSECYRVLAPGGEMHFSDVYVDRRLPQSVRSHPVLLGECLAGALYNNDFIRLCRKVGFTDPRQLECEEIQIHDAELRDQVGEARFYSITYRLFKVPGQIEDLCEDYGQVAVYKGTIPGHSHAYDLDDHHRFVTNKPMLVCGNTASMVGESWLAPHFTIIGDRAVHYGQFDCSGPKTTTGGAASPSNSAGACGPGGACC

Y72W CrAS3MT = assay type: binding, Chlamydomonas reinhardtii
CrAS3MT [2] = biological target: T1, CrAS3MT; assay type: biochemical
SAM methyltransferases = conditions: read-out: IC50 for SAM methyltransferases; cited from earlier work

## arsenite [As(III)]
CrAS3MT [1]
  As(III) concentration at which activity could be detected: 10^−8 molar

## CSS(C)(=O)=O [MMTS, methylmethanethiosulfonate]
Y72W CrAS3MT
  effect on quenching of Y72W by As(III): significant reduction in quenching
  effect on the fluorescence of Y72W (quenching): quenched
  protein fluorescence quenching at 20 μM MMTS: not substantially quenched
CrAS3MT [1]; read-out: IC50 for inhibition of SAH production (half-maximal inhibition)
  IC50: 43 µM

## [Sb+3] [Sb(III)]
Y72W CrAS3MT
  effect on the fluorescence of Y72W (quenching): most quenching at the lowest concentration

## CCN1C(=O)C=CC1=O [NEM, N-ethylmaleimide]
CrAS3MT [1]
  IC50: 140 µM
CrAS3MT [2]
  effect on arsenic methylation: completely inhibited

## Nc1ncnc2c1ncn2[C@@H]1O[C@H](CC(N)CCC(N)C(=O)O)[C@@H](O)[C@H]1O (stereo partly shown) [sinefungin, 5′-deoxy-5′-(1,4-diamino-4-carboxybutyl)adenosine]
Y72W CrAS3MT
  effect on As(III)-induced fluorescence quenching: no effect
  quenching of Y72W fluorescence by sinefungin: did not quench
SAM methyltransferases
  IC50: 0.1 to 20 µM
CrAS3MT [1]
  IC50: 0.5 µM
CrAS3MT [2]
  effect on formation of DMAs(V): significantly inhibited
